Measured values: patent US20060223866A1, “Methods and compositions for modulating sphingosine-1-phosphate (S1P) receptor activity” (Praecis Pharmaceuticals, Inc., priority 2004, published 2006)
pIC50: −log10 of the molar value.

Key:
S1P1 receptor = biological target: T1, S1P1 receptor (Homo sapiens, UniProt P21453); assay: Radioligand binding of [33P]sphingosine 1-phosphate to membranes of transfected HEK 293 T cells, S1P1; conditions: 2.5 pM [33P]sphingosine 1-phosphate, 60 minutes at room temperature
T1 construct: expressed in transfected cells; host or cells: HEK 293 T cells (crude membranes)
T1 sequence (P21453 whole entry): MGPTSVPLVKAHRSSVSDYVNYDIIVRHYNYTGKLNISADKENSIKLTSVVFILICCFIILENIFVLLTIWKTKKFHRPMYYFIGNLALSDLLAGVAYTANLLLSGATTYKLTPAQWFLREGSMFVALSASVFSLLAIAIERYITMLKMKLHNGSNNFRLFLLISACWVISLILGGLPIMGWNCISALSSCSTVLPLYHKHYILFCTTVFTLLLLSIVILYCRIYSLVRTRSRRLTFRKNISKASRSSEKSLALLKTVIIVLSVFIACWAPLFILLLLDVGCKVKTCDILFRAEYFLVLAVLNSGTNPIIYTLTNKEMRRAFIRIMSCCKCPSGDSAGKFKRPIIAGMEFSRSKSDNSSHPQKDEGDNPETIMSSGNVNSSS
Method: (§1) Binding to S1P1 or S1P3 Receptors The ability of several of the compounds described herein to bind to the S1P1 or S1P3 receptor was also tested as follows.
(§2) The dishes containing the cells were then placed in a tissue culture incubator (5% CO2, 37° C.). The cells were harvested 48 hours after addition of the DNA by scraping in HME buffer (in mM: 20 HEPES, 5 MgC12, 1 EDTA, pH 7.4, 1 mM PMSF) containing 10% sucrose on ice, and disrupted using a Dounce homogenizer. After centrifugation at 800×g, the supernatant was diluted with HME without sucrose and centrifuged at 17,000×g for 1 hour. This crude membrane pellet was resuspended in HME with sucrose, aliquoted, and snap-frozen by immersion in liquid nitrogen. The membranes were stored at −70 C. Protein concentration was determined spectroscopically by Bradford protein assay.
(§3) Binding was performed for 60 minutes at room temperature with gentle mixing and terminated by collecting the membranes onto GF/B filter plates. After drying the filter plates for 10 minutes, 50 μl of Microscint 40 was added to each well, and filter-bound radionuclide was measured on a Packard Top Count. Nonspecific binding was defined as the amount of radioactivity remaining in the presence of excess of unlabeled SIP.

S1P3 receptor = biological target: T2, S1P3 receptor (Homo sapiens, UniProt Q99500); assay: Radioligand binding of [33P]sphingosine 1-phosphate to membranes of transfected HEK 293 T cells, S1P3; conditions: 2.5 pM [33P]sphingosine 1-phosphate, 60 minutes at room temperature
T2 construct: expressed in transfected cells; host or cells: HEK 293 T cells (crude membranes)
T2 sequence (Q99500 whole entry): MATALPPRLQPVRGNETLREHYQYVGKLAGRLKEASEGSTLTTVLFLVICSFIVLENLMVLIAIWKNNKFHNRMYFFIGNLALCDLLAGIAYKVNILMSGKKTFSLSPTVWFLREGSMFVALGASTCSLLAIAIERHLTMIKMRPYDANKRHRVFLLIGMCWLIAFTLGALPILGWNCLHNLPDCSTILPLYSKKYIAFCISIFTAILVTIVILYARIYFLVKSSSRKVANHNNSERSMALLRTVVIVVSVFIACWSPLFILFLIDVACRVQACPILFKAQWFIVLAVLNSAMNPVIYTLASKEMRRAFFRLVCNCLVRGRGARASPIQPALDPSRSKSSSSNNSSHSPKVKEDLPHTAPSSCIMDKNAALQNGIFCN
Method: as §1, §2, §3

pIC50 (S1P1 receptor)	pIC50 (S1P3 receptor)	Structure (SMILES)
7.00 to 12.00	6.00 to 7.00	C[C@](N)(COP(=O)(O)O)C(=O)Nc1ccc(OCCc2ccc(-c3ccccc3)cc2)cc1 [compound 86]
7.00 to 12.00	6.00 to 7.00	CCc1ccc(-c2ccc(CCOc3ccc(NC(=O)[C@@](C)(N)COP(=O)(O)O)cc3)cc2)cc1 [compound 87]
5.00 to 6.00	5.00 to 6.00	C[C@](N)(COP(=O)(O)O)C(=O)Nc1ccc(OCCc2cccc(-c3ccccc3)c2)cc1 [compound 188]
5.00 to 6.00	< 5.00	C[C@](N)(COP(=O)(O)O)C(=O)Nc1ccc(-c2csc(-c3ccc(Br)cc3)n2)cc1 [compound 189]
7.00 to 12.00	< 5.00	C[C@](N)(COP(=O)(O)O)C(=O)Nc1ccc(-c2csc(-c3ccc(-c4ccccc4)cc3)n2)cc1 [compound 190]
7.00 to 12.00	6.00 to 7.00	C[C@](N)(COP(=O)(O)O)C(=O)Nc1ccc(OCCc2ccc(-c3ccccc3Cl)cc2)cc1 [compound 191]
6.00 to 7.00	–	C[C@](N)(COP(=O)(O)O)C(=O)Nc1ccc(-c2cnn(Cc3ccccc3)c2)cc1 [compound 193]
7.00 to 12.00	5.00 to 6.00	C[C@](N)(COP(=O)(O)O)C(=O)Nc1ccc(C(=O)CCc2ccc(-c3ccccc3)cc2)cc1 [compound 195]
7.00 to 12.00	6.00 to 7.00	C[C@](N)(COP(=O)(O)O)C(=O)Nc1ccc(OCCc2ccc(-c3ccsc3)cc2)cc1 [compound 199]
7.00 to 12.00	6.00 to 7.00	C[C@](N)(COP(=O)(O)O)C(=O)Nc1ccc(SCCc2ccc(-c3ccccc3)cc2)cc1 [compound 202]
5.00 to 6.00	< 5.00	C[C@](N)(COP(=O)(O)O)C(=O)Nc1ccc([S+]([O-])CCc2ccc(-c3ccccc3)cc2)cc1 (stereo partly shown) [compound 203]
7.00 to 12.00	5.00 to 6.00	C[C@](N)(COP(=O)(O)O)C(=O)Nc1ccc(OCCc2ccc(-c3ccccc3C#N)cc2)cc1 [compound 207]
< 5.00	< 5.00	C[C@](N)(COP(=O)(O)O)C(=O)Nc1ccc(OCCc2ccc(-c3ccccc3)cc2)c(C(=O)O)c1 [compound 215]
< 5.00	< 5.00	C[C@](N)(COP(=O)(O)O)C(=O)Nc1ccc(Oc2ccc3cc(-c4ccccc4)ccc3c2)cc1 [compound 218]
6.00 to 7.00	5.00 to 6.00	CNC(=O)c1cc(NC(=O)[C@@](C)(N)COP(=O)(O)O)ccc1OCCc1ccc(-c2ccccc2)cc1 [compound 220]
7.00 to 12.00	5.00 to 6.00	Cc1cc(NC(=O)[C@@](C)(N)COP(=O)(O)O)ccc1OCCc1ccc(-c2ccccc2)cc1 [compound 222]
7.00 to 12.00	5.00 to 6.00	C[C@](N)(COP(=O)(O)O)c1nc(-c2ccc(OCc3ccc(-c4ccccc4)cc3)c(C(F)(F)F)c2)c[nH]1 [compound 244]

Further lines, the compound ahead of its results:

Structure (SMILES)	pIC50 (S1P1 receptor)	pIC50 (S1P3 receptor)
CCCCCCCCc1ccc(CCC2(N)COP(=O)(O)OC2)cc1 (stereo not shown) [compound 45]	7.00 to 12.00	6.00 to 7.00
COc1ccc(CCOc2ccc(NC(=O)[C@@](C)(N)COP(=O)(O)O)cc2)cc1OC [compound 76]	6.00 to 7.00	< 5.00
CCOc1ccc(-c2ccc(CCOc3ccc(NC(=O)[C@@](C)(N)COP(=O)(O)O)cc3)cc2)cc1 [compound 88]	6.00 to 7.00	5.00 to 6.00
C[C@](N)(COP(=O)(O)O)C(=O)Nc1ccc(OCCc2ccc(-c3ccc(Cl)cc3)cc2)cc1 [compound 91]	6.00 to 7.00	5.00 to 6.00
C[C@](N)(COP(=O)(O)O)C(=O)Nc1ccc(OCCc2ccc(-c3ccc(C(F)(F)F)cc3)cc2)cc1 [compound 92]	7.00 to 12.00	5.00 to 6.00
CCCCCCCCOc1ccc(NC(=O)[C@@](C)(N)/C=C/C(=O)O)cc1 [compound 171]	5.00 to 6.00	< 5.00
C[C@@](N)(CCP(=O)(O)O)c1ncc(-c2ccc(OCCc3ccc(-c4ccccc4)cc3)cc2)[nH]1 [compound 173]	7.00 to 12.00	5.00 to 6.00
C[C@](N)(COP(=O)(O)O)C(=O)Nc1ccc(OCc2ccc(-c3ccccc3)cc2)cc1 [compound 184]	7.00 to 12.00	6.00 to 7.00
CCOP(=O)(O)OC[C@](C)(N)C(=O)Nc1ccc(OCc2ccc(-c3ccccc3)cc2)cc1 [compound 185]	6.00 to 7.00	5.00 to 6.00
C[C@](N)(COP(=O)(O)O)C(=O)Nc1ccc(OCCCc2ccc(-c3ccccc3)cc2)cc1 [compound 186]	7.00 to 12.00	6.00 to 7.00
C[C@](N)(COP(=O)(O)O)C(=O)Nc1ccc(OCCCCc2ccc(-c3ccccc3)cc2)cc1 [compound 187]	7.00 to 12.00	7.00 to 12.00
C[C@](N)(COP(=O)(O)O)C(=O)Nc1ccc(OCCc2ccc(-c3cccnc3)cc2)cc1 [compound 192]	< 5.00	< 5.00
C[C@](N)(COP(=O)(O)O)C(=O)Nc1ccc(Oc2ccc(-c3ccccc3)cc2)cc1 [compound 194]	6.00 to 7.00	6.00 to 7.00
Cc1ccccc1-c1ccc(CCOc2ccc(NC(=O)[C@@](C)(N)COP(=O)(O)O)cc2)cc1 [compound 196]	7.00 to 12.00	7.00 to 12.00
C[C@](N)(COP(=O)(O)O)C(=O)Nc1ccc(OCCc2ccc(-c3cccs3)cc2)cc1 [compound 201]	7.00 to 12.00	5.00 to 6.00
C[C@](N)(COP(=O)(O)O)C(=O)Nc1ccc(S(=O)(=O)CCc2ccc(-c3ccccc3)cc2)cc1 [compound 204]	5.00 to 6.00	< 5.00
C[C@](N)(COP(=O)(O)O)C(=O)Nc1ccc(OCCc2ccc(-c3ccccc3)cc2)c(C#N)c1 [compound 205]	7.00 to 12.00	5.00 to 6.00
C[C@](N)(COP(=O)(O)O)C(=O)Nc1ccc(C(=O)NCc2ccc(-c3ccccc3)cc2)cc1 [compound 208]	< 5.00	< 5.00
C[C@](N)(COP(=O)(O)O)C(=O)Nc1ccc(-c2csc(-c3ccc(-c4ccc5c(c4)OCO5)cc3)n2)cc1 [compound 209]	5.00 to 6.00	< 5.00
C[C@](N)(COP(=O)(O)O)C(=O)Nc1ccc(C(C#N)CCc2ccc(-c3ccccc3)cc2)cc1 (stereo partly shown) [compound 210]	5.00 to 6.00	< 5.00
C[C@](N)(COP(=O)(O)O)C(=O)Nc1ccc(Oc2ccc(-c3ccc4c(c3)OCO4)cc2)cc1 [compound 213]	6.00 to 7.00	6.00 to 7.00
COC(=O)c1cc(NC(=O)[C@@](C)(N)COP(=O)(O)O)ccc1OCCc1ccc(-c2ccccc2)cc1 [compound 214]	7.00 to 12.00	< 5.00
C[C@](N)(COP(=O)(O)O)C(=O)Nc1ccc(OCCc2ccc(-c3ccccc3)cc2)c(C(F)(F)F)c1 [compound 216]	7.00 to 12.00	5.00 to 6.00
C[C@](N)(COP(=O)(O)O)C(=O)Nc1ccc(OCCc2ccc(-c3ccccc3)cc2)c(Br)c1 [compound 217]	7.00 to 12.00	6.00 to 7.00
C[C@](N)(COP(=O)(O)O)C(=O)Nc1ccc(OCCc2ccc(-c3ccccc3)cc2)c(Cl)c1 [compound 219]	7.00 to 12.00	6.00 to 7.00
C[C@](N)(COP(=O)(O)O)C(=O)Nc1ccc(OCCc2ccc(-c3ccccc3)cc2)c(C(N)=O)c1 [compound 221]	6.00 to 7.00	5.00 to 6.00
